Values quoted from earlier work, collected in patent publication US11261449B2, “Anti-cancer RNA aptamers” (CITY OF HOPE, priority 2015, dated 2022).

Tests used:
[1] = system: HepG2 cells; details: HepG2, Reebye et al.; cited from earlier work
[2] = system: tumor burden; details: intravenous injection; cited from earlier work

## C/EBPα-saRNA: saRNA targeting CCAAT/enhancer-binding protein-α; sense and antisense strands AW1, SEQ ID NO:22/23 (sense CGGUCAUUGUCACUGGUCAUU; antisense UGACCAGUGACAAUGACCGUU; listed as RNA, chemistry not fully specified)
[1]
  cell proliferation: decreases cell proliferation in HepG2 cells
[2]
  tumor burden: decreased tumor burden
